Laboratory results taken from patent US10251863B2, “Parasiticidal compositions comprising indole derivatives, methods and uses thereof” (MERIAL, INC., priority 2014, dated 2019).

test system: adult F. hepatica; assay: in vitro test on adult F. hepatica (viability scale); type: cell-based; conditions: Fasciola hepatica, 72 h, read-out: Effective in vitro concentration
Procedure: Representative compounds of formula (I) were tested in vitro against F. hepatica as follows. Adult F. hepatica (fluke) were collected from infected bovine livers obtained from a local abattoir (Basel, Switzerland). The worms were quickly washed with 0.9% (w/v) NaCl and placed in 6 or 12-well plates (Costar). Culture medium in each well contained RPMI 1640 (Gibco) at 37° C., which was supplemented with antibiotics (50 μg/ml streptomycin and 50 IU/ml penicillin; Gibco) and 80 μg/ml of a haemin solution. The haemin solution was prepared as follows: 5 mg haemin was dissolved in 1 ml of 0.1M aqueous solution of NaOH, and 3.95 ml of PBS (pH=7.4) and 0.05 ml of 1M HCl were added to adjust the pH to 7.1-7.4 (Keiser and Morson, 2008). Cultures were kept at 37° C. in an atmosphere of 5% CO2. To monitor the temporal effects of test compounds in vitro, 3 flukes were incubated for 72 h in the presence of 50 or 100 μg/ml of each test compound. At 24, 48, and 72 h, worms were examined using a dissecting microscope. For the adult worms, a viability scale ranging from 3 (normal movements) to 0 (death; no movement observed for two min using a microscope) was used.
Table 1 lists representative compounds of formula (I) of the present invention and their effective in vitro concentrations against F. hepatica. All compounds were tested in vitro on the adult stage of F. hepatica as described above. Each data point refers to at least two independent experiments having at least three worms per concentration.

Structure (SMILES)	minimal effective concentration [µg/mL]
N#Cc1ccc(-c2cc3cc(C(F)(F)F)[nH]c3cc2Cl)c(Cl)c1 [Compound 355, 3-chloro-4-[6-chloro-2-(trifluoromethyl)-1H-indol-5-yl]benzonitrile]	> 2.5

same assay, conditions: Fasciola hepatica; adult stage of F. hepatica, incubated up to 72 h, viability scale 3 to 0; at least two independent experiments, at least three worms per concentration; read-out: Effective in vitro concentration

Structure (SMILES)	minimal effective concentration [µg/mL]
FC(F)(F)c1ccc(-c2ccc3[nH]c(C(F)(F)F)cc3c2)c(Cl)c1 [Compound 332, 5-[2-chloro-4-(trifluoromethyl)phenyl]-2-(trifluoromethyl)-1H-indole]	< 10
FC(F)(F)c1ccc(-c2ccc3cc(C(F)(F)F)[nH]c3c2)c(Cl)c1 [Compound 334, 6-[2-chloro-4-(trifluoromethyl)phenyl]-2-(trifluoromethyl)-1H-indole]	< 10
FC(F)(F)c1ccc(-c2cc3cc(C(F)(F)F)[nH]c3cc2Cl)c(Cl)c1 [Compound 336, 6-chloro-5-[2-chloro-4-(trifluoromethyl)phenyl]-2-(trifluoromethyl)-1H-indole]	< 10
Cc1cc2cc(-c3ccc(C(F)(F)F)cc3Cl)c(Cl)cc2[nH]1 [Compound 337, 6-chloro-5-[2-chloro-4-(trifluoromethyl)phenyl]-2-methyl-1H-indole]	< 10
CCc1cc2cc(-c3ccc(C(F)(F)F)cc3Cl)c(Cl)cc2[nH]1 [Compound 338, 6-chloro-5-[2-chloro-4-(trifluoromethyl)phenyl]-2-ethyl-1H-indole]	< 10
CCCc1cc2cc(-c3ccc(C(F)(F)F)cc3Cl)c(Cl)cc2[nH]1 [Compound 339, 6-chloro-5-[2-chloro-4-(trifluoromethyl)phenyl]-2-propyl-1H-indole]	< 10
FC(F)(F)c1ccc(-c2cc3cc(C(F)(F)C(F)(F)F)[nH]c3cc2Cl)c(Cl)c1 [Compound 340, 6-chloro-5-[2-chloro-4-(trifluoromethyl)phenyl]-2-(pentafluoroethyl)-1H-indole]	< 10
FC(F)(F)c1ccc(-c2cc3cc(C(F)(F)C(F)(F)C(F)(F)F)[nH]c3cc2Cl)c(Cl)c1 [Compound 341, 6-chloro-5-[2-chloro-4-(trifluoromethyl)phenyl]-2-(heptafluoropropyl)-1H-indole]	> 10
FC(F)(F)c1cc2cc(-c3ccc(Cl)cc3C(F)(F)F)c(Cl)cc2[nH]1 [Compound 342, 6-chloro-5-[4-chloro-2-(trifluoromethyl)phenyl]-2-(trifluoromethyl)-1H-indole]	< 10
FC(F)(F)c1cc2cc(-c3ccc(Cl)cc3)c(Cl)cc2[nH]1 [Compound 343, 6-chloro-5-(4-chlorophenyl)-2-(trifluoromethyl)-1H-indole]	< 10
Fc1ccc(-c2cc3cc(C(F)(F)F)[nH]c3cc2Cl)cc1 [Compound 344, 6-chloro-5-(4-fluorophenyl)-2-(trifluoromethyl)-1H-indole]	< 10
FC(F)(F)c1ccc(-c2cc3cc(C(F)(F)F)[nH]c3cc2Cl)cc1 [Compound 345, 6-chloro-2-(trifluoromethyl)-5-[4-(trifluoromethyl)phenyl]-1H-indole]	< 10
FC(F)(F)c1cc2cc(-c3ccccc3Cl)c(Cl)cc2[nH]1 [Compound 346, 6-chloro-5-(2-chlorophenyl)-2-(trifluoromethyl)-1H-indole]	< 10
FC(F)(F)c1cc2cc(-c3cccc(Cl)c3)c(Cl)cc2[nH]1 [Compound 347, 6-chloro-5-(3-chlorophenyl)-2-(trifluoromethyl)-1H-indole]	≤ 10
FC(F)(F)c1cc2cc(-c3ccc(Cl)c(Cl)c3)c(Cl)cc2[nH]1 [Compound 348, 6-chloro-5-(3,4-dichlorophenyl)-2-(trifluoromethyl)-1H-indole]	< 10
FC(F)(F)c1cc2cc(-c3ccncc3)c(Cl)cc2[nH]1 [Compound 349, 6-chloro-5-(pyridin-4-yl)-2-(trifluoromethyl)-1H-indole]	≤ 10
FC(F)(F)c1cc2cc(Oc3ccc(Cl)cc3)c(Cl)cc2[nH]1 [Compound 350, 6-chloro-5-(4-chlorophenoxy)-2-(trifluoromethyl)-1H-indole]	≤ 10
FC(F)(F)c1cc2cc(Oc3ccccc3Cl)c(Cl)cc2[nH]1 [Compound 351, 6-chloro-5-(2-chlorophenoxy)-2-(trifluoromethyl)-1H-indole]	< 10
FC(F)(F)c1ccc(Oc2cc3cc(C(F)(F)F)[nH]c3cc2Cl)cc1 [Compound 352, 6-chloro-2-(trifluoromethyl)-5-[4-(trifluoromethyl)phenoxy]-1H-indole]	> 10
Cl.FC(F)(F)c1cc2cc(-c3ccncc3)c(Cl)cc2[nH]1 [Compound 354, 6-chloro-5-(pyridin-4-yl)-2-(trifluoromethyl)-1H-indole hydrochloride]	> 2.5
Fc1ccc(-c2cc3cc(C(F)(F)F)[nH]c3cc2Cl)c(Cl)c1 [Compound 356, 6-chloro-5-(2-chloro-4-fluorophenyl)-2-(trifluoromethyl)-1H-indole]	< 10
FC(F)(F)c1cc2cc(-c3ccc(Cl)cc3Cl)c(Cl)cc2[nH]1 [Compound 357, 6-Chloro-5-(2,4-dichlorophenyl)-2-(trifluoromethyl)-1H-indole]	< 10
O=C(O)c1ccccc1-c1cc2cc(C(F)(F)F)[nH]c2cc1Cl [Compound 358, 2-[6-Chloro-2-(trifluoromethyl)-1H-indol-5-yl]benzoic acid]	> 2.5
N#Cc1ccccc1-c1cc2cc(C(F)(F)F)[nH]c2cc1Cl [Compound 359, 2-[6-Chloro-2-(trifluoromethyl)-1H-indol-5-yl]benzonitrile]	> 2.5
CN(C)Cc1ccccc1-c1cc2cc(C(F)(F)F)[nH]c2cc1Cl [Compound 360, ([2-[6-Chloro-2-(trifluoromethyl)-1H-indol-5-yl]phenyl]methyl)dimethylamine]	> 2.5
CN(C)Cc1ccccc1-c1cc2cc(C(F)(F)F)[nH]c2cc1Cl.Cl [Compound 360-0A, ([2-[6-Chloro-2-(trifluoromethyl)-1H-indol-5-yl]phenyl]methyl)dimethylamine hydrochloride]	> 2.5
FC(F)(F)c1cc2cc(-c3ccncc3Cl)c(Cl)cc2[nH]1 [Compound 361, 6-chloro-5-(3-chloropyridin-4-yl)-2-(trifluoromethyl)-1H-indole]	< 10
Cl.FC(F)(F)c1cc2cc(-c3ccncc3Cl)c(Cl)cc2[nH]1 [Compound 361-0A, 6-chloro-5-(3-chloropyridin-4-yl)-2-(trifluoromethyl)-1H-indole hydrochloride]	< 10
Cl.FC(F)(F)c1cc2cc(Oc3ccncc3)c(Cl)cc2[nH]1 [Compound 362-0A, 6-chloro-5-(pyridin-4-yloxy)-2-(trifluoromethyl)-1H-indole hydrochloride]	> 2.5

test system: liver fluke newly-excysted juveniles (NEJs); assay: fluke motility assay, digital image-based, newly-excysted juveniles (NEJs); type: cell-based, Fasciola hepatica; conditions: 18 h, final concentrations 10 μM-1 nM
Procedure: Further testing employed a fluke motility assay. Compounds 332, 336 and 351 were screened for activity against liver fluke newly-excysted juveniles (NEJs) in a digital image-based motility assay, based on measurement of the rate of change in worm length (μm/min) during peristaltic motility. Newly excised worms were immediately placed into a solution of drug in RPMI (final concentrations 10 μM-1 nM), alongside untreated and vehicle controls, and triclabendazole/triclabendazole sulfoxide (i.e., TCBZ/TCBZ-SO) at matching concentrations, for a period of 18 h. Each treatment group consisted of 15-20 NEJs. […] Each data point represents mean length change (μm/min) in an individual worm during a five minute recording period. Horizontal lines represent data set means. ****, p<0.0001; ***, p<0.001; **, p<0.01; *, p<0.05.

Structure (SMILES)	inhibition of motility compared with TCBZ and TCBZ-SO
FC(F)(F)c1ccc(-c2ccc3[nH]c(C(F)(F)F)cc3c2)c(Cl)c1 [Compound 332, 5-[2-chloro-4-(trifluoromethyl)phenyl]-2-(trifluoromethyl)-1H-indole]	more potent inhibition of motility than either TCBZ
FC(F)(F)c1ccc(-c2cc3cc(C(F)(F)F)[nH]c3cc2Cl)c(Cl)c1 [Compound 336, 6-chloro-5-[2-chloro-4-(trifluoromethyl)phenyl]-2-(trifluoromethyl)-1H-indole]	more potent inhibition of motility than either TCBZ
FC(F)(F)c1cc2cc(Oc3ccccc3Cl)c(Cl)cc2[nH]1 [Compound 351, 6-chloro-5-(2-chlorophenoxy)-2-(trifluoromethyl)-1H-indole]	more potent inhibition of motility than either TCBZ

same assay, conditions: 18 h, tested 10 μM-1 nM

Structure (SMILES)	concentration effective on motility (effective only at) [µM]
CSc1nc2cc(Cl)c(Oc3cccc(Cl)c3Cl)cc2[nH]1 [TCBZ, triclabendazole, reference compound]	10
C[S+]([O-])c1nc2cc(Oc3cccc(Cl)c3Cl)c(Cl)cc2[nH]1 (centres unmarked) [TCBZ-SO, triclabendazole sulfoxide, reference compound]	10

same assay, conditions: 18 h in drug in RPMI, rate of change in worm length (μm/min)

Structure (SMILES)	concentration that completely abolished motility [µM]	concentration that significantly impacted motility [nM]
FC(F)(F)c1ccc(-c2ccc3[nH]c(C(F)(F)F)cc3c2)c(Cl)c1 [Compound 332, 5-[2-chloro-4-(trifluoromethyl)phenyl]-2-(trifluoromethyl)-1H-indole]	1	
FC(F)(F)c1ccc(-c2cc3cc(C(F)(F)F)[nH]c3cc2Cl)c(Cl)c1 [Compound 336, 6-chloro-5-[2-chloro-4-(trifluoromethyl)phenyl]-2-(trifluoromethyl)-1H-indole]		100
FC(F)(F)c1cc2cc(Oc3ccccc3Cl)c(Cl)cc2[nH]1 [Compound 351, 6-chloro-5-(2-chlorophenoxy)-2-(trifluoromethyl)-1H-indole]	1	
